According to patent US12083084B2, “Method for enhancing energy production and metabolism in cells” (REPLICON HEALTH OY, priority 2013, dated 2024):
Entries after “also recorded” stand apart in the source; their conditions may differ.

Tests used:
Type in all cases: cell-based
[1] = system: primary human hepatocytes; experiment: Cellular ROS detection (DCFDA) in primary human hepatocytes; settings: primary human hepatocytes, moderate metabolic stress (1.5-2 h after change of medium)
Description: (§1) Primary human hepatocytes were purchased from Celsis In Vitro Technologies (1450 South Rolling Road Baltimore, MD 21227, USA). […] According to the information provided by the Celsis, hepatocytes from each donor should have at least 70% viability and more than 5 million viable cells. The medium for the culture of hepatocytes was provided by Celsis. They were InVitroGRO CP (for plating) medium (Z99029) and InVitroGRO HI (for incubation) medium (Z99009). Antibiotics (Torpedo Antibiotics Mix, Z990007) were also from Celsis. The thaw, plating and culture of cells were carried out according to the instruction provided by the Celsis In Vitro Technologies.
(§2) For the measurement of cell viability after treatment of test compound, CytoTox-One Homogeneous Membrane Integrity Assay kit (Promega, G7891) was used. The CytoTox-One Assay is a rapid fluorescent measure of the release of lactate dehydrogenase (LDH) from cells with a damaged membrane. The number of […] cells correlates to the fluorescence intensity determined by a fluorescence plate reader (Hidex Chameleon V multiplate reader, Hidex Oy, Turku, Finland) with excitation 544 nm and emission 590 nm. For the measurement of cellular reactive oxygen species (ROS), DCFDA Cellular ROS Detection Assay Kit from Abcam (ab113851) was used. Reactive oxygen species (ROS) assay kit (ab113851) uses the cell permeant reagent 2′,7′-dichlorofluorescein diacetate (DCFDA), a fluorogenic dye that measures hydroxyl, peroxyl and other ROS activity with the cell. The activity of ROS was measured by a fluorescence plate reader (Hidex) with excitation/emission wavelengths of 485 nm/535 nm.
(§3) The culture of primary hepatocytes was carried out based on the instructions provided by Celsis. After thawing, the cells were suspended in InVitroGRO CP medium. Thereafter the viability of cells was determined using the Trypan Blue exclusion method. Then the concentration of cells was adjusted using InVitroGRO CP medium, so about 30000-35000 cells/100 μl/well can be seeded in collagen I coated 96 well plate (BD, 734-0248).
(§4) After seeding, the cells were cultured overnight in the cell culture incubator (Sanyo MCO 18) at atmosphere of 95% air, 5% CO2 at 37° C. Thereafter, the culture medium for the cells was changed to InVitroGRO Hi (Hi Medium) containing test compound (D-glyceric acid calcium salt dehydrate) at the concentrations of 0, 0.2, 2 and 20 μg/ml (study 1, Table 1.1.1) and 0, 0.4, 2 and 10 μg/ml (study 2, Table 1.1.2).
In study 3 also LGA and HPA were tested and compared to DGA (see FIGS. 11c and 11d) with same doses as in study 2.
In studies 2-4 additional diet with 0.75 mM of palmitic acid (“fatty acid diet”) was added to Hi Medium. Hi Medium in itself contains ample amounts of glucose and fructose and other necessary ingredients for keeping viability of the cell culture at optimal level.
(§5) After 24 h (in study 1) and 20 h (in studies 2-4) incubation medium was renewed. Second renewal of the incubation medium occurred at 48 h in study 1 and at 40 h in other studies. ROS and LDH were measured after 1.5-2 hours after last change of the medium, i.e. in a situation with moderate metabolic stress.
The measurement of cellular reactive oxygen species (ROS) was carried out according to the instruction of Abcam (ab113851). At the end of treatment time point, culture medium was taken away for leaked LDH measurement and cells were washed with 100 μl/well PBS once. Thereafter 100 μl/well of DCDA mix was added and incubated for 45 min at 37° C. in the dark. Then cells were washed once with 1× buffer solution. The fluorescence signal was measured at an excitation wavelength of 485 nm and emission wavelength of 535 nm using the Hidex Chameleon V multiplate reader (Hidex Oy, Turku, Finland).
For the LDH and ROS assays, individual values of each measurement were stored and average value of fluorescence signals of various repeats of each treatment at studied time point were calculated and compared. […]

[2] = system: primary human hepatocytes; experiment: Cell viability by LDH release (CytoTox-One) in primary human hepatocytes; settings: for viability compared to 0 dose (in words): primary human hepatocytes, standard treatment, moderate metabolic stress
Description: as §1, §2, §3, §4, §5
The measurement of LDH from medium (leaked LDH) and from cell and medium (total LDH) was carried out according to the instruction provided by the Promega (G7891). The plate was incubated at an incubator to achieve a temperature of 22° C. Thereafter, equal volume of CytoTox-ONE Reagent to cell culture medium (100 μl) was added to each well and mix for 30 seconds. Then they were incubated for 10 min at 22° C., and then 50 μl of Stop Solution was added to each well. After gentle mixing, the fluorescence signal was measured at an excitation wavelength of 560 nm and emission wavelength of 590 nm using the Hidex Chameleon V multiplate reader (Hidex Oy, Turku, Finland).
For the total LDH measurement, all the steps are same except a 2 μl of Lysis Solution (per 100 μl original volume) will be added to the each well to lyse the cells before CytoTox-ONE Reagents will be added.
For the LDH and ROS assays, individual values of each measurement were stored and average value of fluorescence signals of various repeats of each treatment at studied time point were calculated and compared. […] Viability (LDH) measurements contained 4-6 repeats depending on the study. […]

[3] = system: human primary hepatocytes; experiment: NAD+/NADH quantification in human hepatocytes; design: NADtot / NADH / NAD+ / NAD+/NADH: unit not given here; settings: donor alpha, new nutrition at 48 h, N = 5; 14 (μM); 48 h + 3 h
Text: For the measurement of total NAD (NADtot=NADH+NAD^+) and NAD^+/NADH ratio, a NAD^+/NADH Quantification kit (MAK037) from Sigma was used. NAD functions as an electron carrier, fluctuating between the oxidized (NAD^+) and reduced (NADH) forms. In addition, NAD^+ plays critical roles in ADP-ribosylation reaction and as a substrate for sirtuins. According to the Sigma instruction, the NAD^+/NADH Quantification kit (Sigma) provides a convenient tool for sensitive detection of NAD, NADH and their ratio without requirement to purify them from samples. Important to notice is that the kit measures NADH and NAD^+ in whole cell including all cell organelles and compartments. Mitochondrial matrix is clearly dominant NADH producer from TCA and beta oxidation (consuming naturally the same amount of NAD^+ in redox reactions). Importantly, formed NADH is also typically oxidized into NAD^+ in the matrix by Complex I in ETC. As is well known anaerobic carbohydrate metabolism, i.e. glycolysis, in cytosol also consumes NAD^+ and produces NADH.
Cell culture in NADH-tests was like in Example 1.1. The change of the medium with DGAcs was conducted at 0 h, 24 h and 48 h. NAD measurements were made at 48+3 h in all cases. For CDP also HPA was tested, and for DOO no new nutrition at 48 h was added, i.e. test was conducted in fasting conditions.

human hepatocytes = experiment: Gene expression from hepatocytes lysates; settings: donor three, N = 5; 14 (μM)

CYP2B6 gene expression deviation from control (human hepatocytes) [%]	Compound	ROS compared to 0 dose/control (in words) [1]	viability compared to 0 dose (in words) [2]	Change in NAD+/NADH vs. Control [3] [%]	NAD+ [3]	NAD+/NADH [3]	NADH [3]	NADtot [3]	HO-1 gene expression deviation from control (human hepatocytes) [%]	PGC-1a gene expression deviation from control (human hepatocytes) [%]	decrease of viability ([2]; donor one, High Medium only, equimolar comparison, 20+20+1.5 h, FIG. 6) [%]
7	O=C(O)C(=O)CO [HPA, hydroxypyruvate]	decrease ROS levels significantly; also recorded: reduced ROS	modestly increase the viability	−47	0.010	0.045	0.222	0.232	1	−2	–
–	O=C(O)[C@@H](O)CO [LGA, L-glyceric acid]	decrease ROS levels significantly	modestly increase the viability	–	–	–	–	–	–	–	–
–	trolox [Vitamin E, reference compound]	–	–	–	–	–	–	–	–	–	~23
